Test results reported in PubChem BioAssay (NCI).
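Tested at 5 concentrations; 48 h exposure; 96-well plates; endpoints linearly interpolated, else capped at highest concentration. TGI marks complete inhibition of growth.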

System: LXFL 529 NSCLC
Assay: NCI-60 cell line screen, 48 h

C=C(C)C1CCC2(C)CC1c1c(c(C)cc3c1[nH]c1ccccc13)O2 (stereo unspecified) and COc1cccc(C2CC23C(=O)NC(=O)NC3=O)c1 (stereo unspecified) cannot be ordered by TGI: > 25 µM for the first, > 100 µM for the second.

CN(CCN(C)C(=O)CCn1cc(F)c(=O)[nH]c1=O)C(=O)CCn1cc(F)c(=O)[nH]c1=O and CCOC(=O)/C(=C/c1ccc(N(C)C)cc1)N(CC)CC cannot be ordered by TGI: > 100 µM for the first, > 100 µM for the second.

CCOC1c2cc(C(C)C)c(O)c(O)c2[C@@]23CCCC(C)(C)C2C1OC3=O (stereo partly specified) and CC(C)=CC1CC(=[N+]=[N-])C(=O)C1(C)C (stereo unspecified) cannot be ordered by TGI: > 100 µM for the first, > 100 µM for the second.

C=CN1C(=O)[C@H](Oc2ccccc2)[C@@H]1c1ccccc1 and O=S(=O)(c1ccccc1)N1N=C2c3ccccc3CCC[C@H]2C1c1ccccc1 (stereo partly specified) cannot be ordered by TGI: > 100 µM for the first, > 100 µM for the second.

Compared with CS(=O)(=O)c1ccc(-c2cc(-c3ccc(S(C)(=O)=O)cc3)[n+](-c3cc(-c4ccccc4)c([O-])c(-c4ccccc4)c3)c(-c3ccc(S(C)(=O)=O)cc3)c2)cc1, O=C(CSc1c2ccccc2nc2ccccc12)Nc1ccccc1-c1ccccc1NC(=O)CSc1c2ccccc2nc2ccccc12 is lower in TGI: > 100 µM for the first, 25.9 µM for the second.

For COc1ccc(C(C#N)NNC(=O)Cc2ccccc2)cc1OC (stereo unspecified), the TGI was > 100 µM.

System: M19-MEL melanoma
Assay: NCI-60 cell line screen, 48 h

COC(=O)[C@@]1(C)/C(=N/NS(=O)(=O)c2ccc(C)cc2)CCC[C@@H]1C and COC(=O)C(C(=O)Cc1ccccc1[N+](=O)[O-])C(=O)OC cannot be ordered by TGI: > 100 µM for the first, > 100 µM for the second.

COc1ccc(OC)c(/C=C(/C#N)c2ccccc2)c1 and COc1ccc(C(C#N)NNC(=O)Cc2ccccc2)cc1OC (stereo unspecified) cannot be ordered by TGI: > 100 µM for the first, > 100 µM for the second.

Compared with CCCCC/C=C1\CCC(CN(C)C)C1=O (stereo unspecified), CCOC(=O)/C(=C/c1ccc(N(C)C)cc1)N(CC)CC is 2.3-fold higher in TGI: 26.6 µM for the first, 60.1 µM for the second.

C=C(C)C1CCC2(C)CC1c1c(c(C)cc3c1[nH]c1ccccc13)O2 (stereo unspecified) and COc1cccc(C2CC23C(=O)NC(=O)NC3=O)c1 (stereo unspecified) cannot be ordered by TGI: > 25 µM for the first, > 100 µM for the second.

CN(CCN(C)C(=O)CCn1cc(F)c(=O)[nH]c1=O)C(=O)CCn1cc(F)c(=O)[nH]c1=O and CCOC1c2cc(C(C)C)c(O)c(O)c2[C@@]23CCCC(C)(C)C2C1OC3=O (stereo partly specified) cannot be ordered by TGI: > 100 µM for the first, > 100 µM for the second.

C=CN1C(=O)[C@H](Oc2ccccc2)[C@@H]1c1ccccc1 and O=S(=O)(c1ccccc1)N1N=C2c3ccccc3CCC[C@H]2C1c1ccccc1 (stereo partly specified) cannot be ordered by TGI: > 100 µM for the first, > 100 µM for the second.

Going from CS(=O)(=O)c1ccc(-c2cc(-c3ccc(S(C)(=O)=O)cc3)[n+](-c3cc(-c4ccccc4)c([O-])c(-c4ccccc4)c3)c(-c3ccc(S(C)(=O)=O)cc3)c2)cc1 to O=C(CSc1c2ccccc2nc2ccccc12)Nc1ccccc1-c1ccccc1NC(=O)CSc1c2ccccc2nc2ccccc12, the TGI falls from > 100 µM to 61.1 µM.

With CC(C)=CC1CC(=[N+]=[N-])C(=O)C1(C)C (stereo unspecified) the TGI was > 100 µM.

System: RXF-631 renal
Assay: NCI-60 cell line screen, 48 h

COC(=O)C(C(=O)Cc1ccccc1[N+](=O)[O-])C(=O)OC and CS(=O)(=O)c1ccc(-c2cc(-c3ccc(S(C)(=O)=O)cc3)[n+](-c3cc(-c4ccccc4)c([O-])c(-c4ccccc4)c3)c(-c3ccc(S(C)(=O)=O)cc3)c2)cc1 cannot be ordered by TGI: > 100 µM for the first, > 100 µM for the second.

CCCCC/C=C1\CCC(CN(C)C)C1=O (stereo unspecified) gave a TGI of 28.3 µM.

System: SNB-78 CNS
Assay: NCI-60 cell line screen, 48 h

COC(=O)[C@@]1(C)/C(=N/NS(=O)(=O)c2ccc(C)cc2)CCC[C@@H]1C and O=S(=O)(c1ccccc1)N1N=C2c3ccccc3CCC[C@H]2C1c1ccccc1 (stereo partly specified) cannot be ordered by TGI: > 100 µM for the first, > 100 µM for the second.

First: CCCCC/C=C1\CCC(CN(C)C)C1=O (stereo unspecified)
Second: CCOC(=O)/C(=C/c1ccc(N(C)C)cc1)N(CC)CC
The TGI of the first is lower: 58.7 µM for the first, > 100 µM for the second.

CCOC1c2cc(C(C)C)c(O)c(O)c2[C@@]23CCCC(C)(C)C2C1OC3=O (stereo partly specified) and COc1cccc(C2CC23C(=O)NC(=O)NC3=O)c1 (stereo unspecified) cannot be ordered by TGI: > 100 µM for the first, > 100 µM for the second.

C=CN1C(=O)[C@H](Oc2ccccc2)[C@@H]1c1ccccc1 and COc1ccc(C(C#N)NNC(=O)Cc2ccccc2)cc1OC (stereo unspecified) cannot be ordered by TGI: > 100 µM for the first, > 100 µM for the second.

Compared with CS(=O)(=O)c1ccc(-c2cc(-c3ccc(S(C)(=O)=O)cc3)[n+](-c3cc(-c4ccccc4)c([O-])c(-c4ccccc4)c3)c(-c3ccc(S(C)(=O)=O)cc3)c2)cc1, O=C(CSc1c2ccccc2nc2ccccc12)Nc1ccccc1-c1ccccc1NC(=O)CSc1c2ccccc2nc2ccccc12 is lower in TGI: > 100 µM for the first, 92.2 µM for the second.

For CC(C)=CC1CC(=[N+]=[N-])C(=O)C1(C)C (stereo unspecified), the TGI was > 100 µM.

System: XF 498 CNS
Assay: NCI-60 cell line screen, 48 h

COC(=O)C(C(=O)Cc1ccccc1[N+](=O)[O-])C(=O)OC and CCOC(=O)/C(=C/c1ccc(N(C)C)cc1)N(CC)CC cannot be ordered by TGI: > 100 µM for the first, > 100 µM for the second.

Compared with CCCCC/C=C1\CCC(CN(C)C)C1=O (stereo unspecified), CC(C)=CC1CC(=[N+]=[N-])C(=O)C1(C)C (stereo unspecified) is higher in TGI: 28.3 µM for the first, > 100 µM for the second.

C=C(C)C1CCC2(C)CC1c1c(c(C)cc3c1[nH]c1ccccc13)O2 (stereo unspecified) and COc1cccc(C2CC23C(=O)NC(=O)NC3=O)c1 (stereo unspecified) cannot be ordered by TGI: > 25 µM for the first, > 100 µM for the second.

Compared with CN(CCN(C)C(=O)CCn1cc(F)c(=O)[nH]c1=O)C(=O)CCn1cc(F)c(=O)[nH]c1=O, O=C(CSc1c2ccccc2nc2ccccc12)Nc1ccccc1-c1ccccc1NC(=O)CSc1c2ccccc2nc2ccccc12 is lower in TGI: > 100 µM for the first, 46.2 µM for the second.

Compared with C=CN1C(=O)[C@H](Oc2ccccc2)[C@@H]1c1ccccc1, O=S(=O)(c1ccccc1)N1N=C2c3ccccc3CCC[C@H]2C1c1ccccc1 (stereo partly specified) is higher in TGI: 84 µM for the first, > 100 µM for the second.

With CS(=O)(=O)c1ccc(-c2cc(-c3ccc(S(C)(=O)=O)cc3)[n+](-c3cc(-c4ccccc4)c([O-])c(-c4ccccc4)c3)c(-c3ccc(S(C)(=O)=O)cc3)c2)cc1 the TGI was > 100 µM.
